Measurements published in patent US9868956B2, “Methods” (North Carolina State University, priority 2009, dated 2018).

Assays:
MbPyIRS/tRNACUA pair = target: T1, MbPyIRS/tRNACUA pair (Methanosarcina barkeri, UniProt Q6WRH6); experiment: Expression of myoglobin-his6 (amber codon at position 4) in E. coli with the MbPyIRS/tRNACUA pair in the presence of the amino acid; assay type: cell-based; details: for incorporation by the MbPyIRS/tRNACUA pair (myoglobin-his6 purified by Ni-NTA chromatography): E. coli, 1 mM amino acid; for yield of full-length myoglobin-his6 purified by Ni-NTA chromatography: E. coli with pBKPylS and pMyo4TAGPylT-his6, amino acid added to log phase cells (1 mM for 1 and 2)
T1 construct: expressed in transfected cells; host or cells: E. coli DH10B transformed with pBKPylS and pMyo4TAGPylT-his6
Description: To investigate whether 1 and 2 are substrates for the MbPyIRS/tRNACUA pair, we transformed E. coli with pBKPylS10 (which encodes MbPyIRS) and pMyo4TAGPylT-his610 (which encodes MbtRNACUA and a C-terminally hexahistidine tagged myoglobin gene with an amber codon at position 4). We added 1 or 2 (1 mM) to log phase cells and induced myoglobin-his6 expression. […] This may reflect the greater flexibility of the carbamate linkage. The yield of protein containing 2 was not improved by efforts to evolve the enzyme but was increased 5-fold by increasing the concentration of 2 7.5 fold (Supplementary FIG. 2A).
To investigate if the carbamate linkage provides a general route to the incorporation of other functional groups suitable for bioconjugation, we synthesized a simple aliphatic azide 3 (2 steps, 80% yield, Supplementary Scheme 1 and Supplementary Methods).
To express sperm whale myoglobin with an incorporated unnatural amino acid, we transformed E. coli DH10B cells with pBKPylS and pMyo4TAGPylT-his6. Cells were recovered in 1 mL of LB media for 1 h at 37° C., before incubation (16 h, 37° C., 250 r.p.m.) in 100 mL of LB containing kanamycin (50 μg/mL) and tetracycline (25 μg/mL). 20 mL of this overnight culture was used to inoculate 500 mL of LB supplemented with kanamycin (25 μg/mL), tetracycline (12 μg/mL) and 2 mM of 2. Cells were grown (37° C., 250 r.p.m.), and protein expression was induced at OD600-0.6, by addition of arabinose to a final concentration of 0.2%. After 3 h of induction, cells were harvested. Proteins were extracted by sonication at 4° C. The extract was clarified by centrifugation (20 min, 21,000 g, 4° C.), 300 μL of Ni^2+-NTA beads (Qiagen) were added to the extract, the mixture was incubated with agitation for 1 h at 4° C. Beads were collected by centrifugation (10 min, 1000 g). The beads were twice resuspended in 50 mL wash buffer and spun down at 1000 g. Subsequently, the beads were resuspended in 20 ml of wash buffer and transferred to a column. Protein was eluted in 1 ml of wash buffer supplemented with 200 mM imidazole and was then re-buffered to 20 mM ammonium bicarbonate using a sephadex G25 column. The purified proteins were analysed by 4-12% SDS-PAGE.
E. coli DH10B cells containing pBKPylS and pMyo4TAGPylT were inoculated into LB containing kanamycin (50 μg/mL) and tetracycline (25 μg/mL). The cells were incubated with shaking overnight at 37° C. 200 μL of cells were inoculated into each of 3 mL LB aliquots containing kanamycin (25 μg/mL) and tetracycline (12 μg/mL) and supplemented with different concentrations (7.5 mM, 5 mM, 2.5 mM, 1 mM, 0.75 mM, 0.5 mM, 0.25 mM, 0.1 mM, 0 mM) of 2. After 3 h of incubation with shaking at 37° C., protein expression was induced by the addition of 30 μL of 20% arabinose. After 12 h of expression, cell were collected by centrifugation (16000 g, 5 min) of 1 mL of cell suspension. The cells were resuspended in 100 μL of NuPAGE SDS Sample buffer supplemented with 10% f3-mercaptoethanol, heated at 80° C. for 10 min and centrifuged at 16000 g for 10 min. The crude cell lysate was analysed by 4-12% SDS-PAGE. Western blots were performed with antibodies against the hexahistidine tag (Invitrogen AntiHis monoclonal Mouse antibody).

[1] = Labeling of myoglobin-his6 bearing 2 with azido-probes via copper catalysed [3+2] cycloaddition; details: biotin azide 5 or By3 azide 6; CuSO4/ascorbate/ligand, pH 8.3
Description: In control experiments myoglobin-his6 bearing 3 at position 4 was treated identically. After 18 h, the purified labeling reactions were probed (FIG. 2A).
Quantification of the ratio of biotin or By3 to protein in purified samples provides independent confirmation of the labeling efficiency (Supplementary Methods).
Protein was re-buffered to 100 mM sodium phosphate buffer (pH 8.3) and concentrated to 2.5 mg/mL. 100 mM stock solutions of CuSO4, sulfonated bathophenanthroline sodium salt (GFS Chemicals) and sodium ascorbate in water were prepared, pre-mixed and incubated at room temperature for 5 min. Myoglobin containing 2 (13.5 nmol) was reacted for 15 minutes at 25° C., then 4° C. for 18 h with the biotin azide (Quanta Biodesign) 5 or the By3 azide (Primetech LTD) 6 (50 equivalents, 10 mM in DMSO) and CuSO4 (1 mM)/ascorbate (1 mM)/ligand (2 mM)^20. After 18 h, the solutions were diluted to 1 mL and loaded onto an Illustra™ NAP-10 column. Proteins were eluted into 1.5 mL of 20 mM NH4HCO3, dialyzed overnight with 20 mM NH4HCO3, loaded onto PD10 and eluted into 3.5 mL 20 mM NH4HCO3. […] Protein concentration of the labeled samples were measured by BCA Protein Assay (Thermo Scientific). The Biotin Quantitation Kit (Thermo Scientific) was used to quantify biotin-conjugated protein in labeled samples, and the By3 absorbance at 550 nm was used to quantify purified By3-labeled protein. […]

T1 sequence (Q6WRH6 whole entry): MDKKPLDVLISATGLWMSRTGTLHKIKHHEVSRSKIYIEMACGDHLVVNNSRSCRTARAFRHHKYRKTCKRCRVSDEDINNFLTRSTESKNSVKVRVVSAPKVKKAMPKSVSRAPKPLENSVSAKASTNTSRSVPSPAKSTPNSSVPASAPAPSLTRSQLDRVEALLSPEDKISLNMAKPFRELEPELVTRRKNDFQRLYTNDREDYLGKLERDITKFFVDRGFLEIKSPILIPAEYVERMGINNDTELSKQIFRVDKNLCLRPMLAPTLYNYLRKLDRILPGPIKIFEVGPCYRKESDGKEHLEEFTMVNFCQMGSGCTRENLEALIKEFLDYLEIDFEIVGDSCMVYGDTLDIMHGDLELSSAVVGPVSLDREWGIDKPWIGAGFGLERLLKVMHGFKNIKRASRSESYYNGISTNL

Compound | incorporation by the MbPyIRS/tRNACUA pair (myoglobin-his6 purified by Ni-NTA chromatography) (MbPyIRS/tRNACUA pair) | yield of full-length myoglobin-his6 purified by Ni-NTA chromatography (MbPyIRS/tRNACUA pair) | increase in yield of protein containing 2 (MbPyIRS/tRNACUA pair; on increasing the concentration of 2 7.5 fold, Western blot against his-6 in cell lysates) | labeling of genetically encoded alkyne with azides that introduce biotin or fluorescent groups [1]
C#CCCC(=O)NCCCC[C@H](N)C(=O)O.O=C(O)C(F)(F)F [compound 1, (S)-2-amino-6-pent-4-ynamidohexanoic acid TFA salt] | only background levels | – | – | –
C#CCOC(=O)NCCCC[C@H](N)C(=O)O.O=C(O)C(F)(F)F [compound 2, (S)-2-amino-6-((prop-2-ynyloxy)carbonylamino)hexanoic acid TFA salt] | incorporated | 2 mg/L | 5 fold | specifically and efficiently labeled
O=C(O)C(F)(F)F.[N-]=[N+]=NCCOC(=O)NCCCC[C@H](N)C(=O)O [compound 3, (S)-2-amino-6-((2-azidoethoxy)carbonylamino)hexanoic acid TFA salt] | – | 3 mg/L | – | –
